Experimental data taken from the supplement of paper PMC10307832.

Tests used:
Assay in all cases: relative viability (nuclei count vs DMSO), 5 days (fraction); higher = more cells survive
[1] = compound: C=CCn1c(=O)c2cnc(Nc3ccc(N4CCN(C)CC4)cc3)nc2n1-c1cccc(C(C)(C)O)n1 [Adavosertib] + O=C(CCCCCCC(=O)Nc1ccccc1)NO [Vorinostat] (partner 1 µM)
Procedure, shortened: (§1)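 Relative viability divides the nuclei count in treated wells by that in vehicle wells. Lung cancer cell lines were seeded in 1536-well plates, dosed by pin tool the next day, and fixed and stained after 5 days in one step with final 0.05% Triton X-100, 1% formaldehyde and 1 ug/ml Hoechst. Dosing was a single drug or a fixed anchor-drug dose plus five library-drug doses (not always all listed) in √10 steps, and values are medians of duplicate plates imaged at 4×.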

[2] = compound: COc1nc(N)nc2c1ncn2[C@@H]1O[C@H](CO)[C@@H](O)[C@@H]1O [Nelarabine] + O=C(CCCCCCC(=O)Nc1ccccc1)NO [Vorinostat] (partner 1 µM)
Procedure, shortened: as §1

[3] = compound: COc1nc(N)nc2c1ncn2[C@@H]1O[C@H](CO)[C@@H](O)[C@@H]1O [Nelarabine] + Cc1nc(Nc2ncc(C(=O)Nc3c(C)cccc3Cl)s2)cc(N2CCN(CCO)CC2)n1 [Dasatinib] (partner 0.075 µM)
Procedure, shortened: as §1

[4] = compound: COc1nc(N)nc2c1ncn2[C@@H]1O[C@H](CO)[C@@H](O)[C@@H]1O [Nelarabine] + Nc1ncn([C@H]2C[C@H](O)[C@@H](CO)O2)c(=O)n1 [Decitabine] (partner 2 µM)
Procedure, shortened: as §1

SK-MES-1
relative viability ([1]; first compound 0.01 µM): 1.09
relative viability ([1]; first compound 0.03162 µM): 1.06
relative viability ([1]; first compound 0.1 µM): 0.778
relative viability ([1]; first compound 0.3162 µM): 0.348
relative viability ([2]; first compound 0.01 µM): 1.36
relative viability ([2]; first compound 0.03162 µM): 1.12
relative viability ([2]; first compound 0.1 µM): 1.18
relative viability ([2]; first compound 0.3162 µM): 1.36
relative viability ([2]; first compound 1 µM): 1.3
relative viability ([3]; first compound 0.01 µM): 0.385
relative viability ([3]; first compound 0.03162 µM): 0.263
relative viability ([3]; first compound 0.1 µM): 0.172
relative viability ([3]; first compound 0.3162 µM): 0.324
relative viability ([3]; first compound 1 µM): 0.301
relative viability ([4]; first compound 0.01 µM): 0.359
relative viability ([4]; first compound 0.03162 µM): 0.347
relative viability ([4]; first compound 0.1 µM): 0.375
relative viability ([4]; first compound 0.3162 µM): 0.422
relative viability ([4]; first compound 1 µM): 0.35

NCI-H2170
relative viability ([1]; first compound 0.01 µM): 0.866
relative viability ([1]; first compound 0.03162 µM): 0.818
relative viability ([1]; first compound 0.1 µM): 0.788
relative viability ([1]; first compound 0.3162 µM): 0.676
relative viability ([2]; first compound 0.01 µM): 1.09
relative viability ([2]; first compound 0.03162 µM): 0.835
relative viability ([2]; first compound 0.1 µM): 0.742
relative viability ([2]; first compound 0.3162 µM): 0.878
relative viability ([2]; first compound 1 µM): 0.71
relative viability ([3]; first compound 0.01 µM): 0.61
relative viability ([3]; first compound 0.03162 µM): 0.608
relative viability ([3]; first compound 0.1 µM): 0.491
relative viability ([3]; first compound 0.3162 µM): 0.697
relative viability ([3]; first compound 1 µM): 0.614
relative viability ([4]; first compound 0.01 µM): 0.473
relative viability ([4]; first compound 0.03162 µM): 0.546
relative viability ([4]; first compound 0.1 µM): 0.484
relative viability ([4]; first compound 0.3162 µM): 0.47
relative viability ([4]; first compound 1 µM): 0.427

NCI-H1648
relative viability ([1]; first compound 0.01 µM): 0.498
relative viability ([1]; first compound 0.03162 µM): 0.407
relative viability ([1]; first compound 0.1 µM): 0.419
relative viability ([1]; first compound 0.3162 µM): 0.532
relative viability ([2]; first compound 0.03162 µM): 0.761
relative viability ([2]; first compound 0.3162 µM): 0.412
relative viability ([2]; first compound 1 µM): 0.642
relative viability ([4]; first compound 0.03162 µM): 0.533
relative viability ([4]; first compound 0.3162 µM): 0.616
relative viability ([4]; first compound 1 µM): 0.441

UMC-11
relative viability ([1]; first compound 0.01 µM): 0.438
relative viability ([1]; first compound 0.03162 µM): 0.405
relative viability ([1]; first compound 0.1 µM): 0.346
relative viability ([1]; first compound 0.3162 µM): 0.308
relative viability ([2]; first compound 0.01 µM): 0.385
relative viability ([2]; first compound 0.03162 µM): 0.306
relative viability ([2]; first compound 0.1 µM): 0.386
relative viability ([2]; first compound 0.3162 µM): 0.371
relative viability ([2]; first compound 1 µM): 0.404
relative viability ([3]; first compound 0.01 µM): 0.698
relative viability ([3]; first compound 0.03162 µM): 0.463
relative viability ([3]; first compound 0.1 µM): 0.575
relative viability ([3]; first compound 0.3162 µM): 0.541
relative viability ([3]; first compound 1 µM): 0.608
relative viability ([4]; first compound 0.01 µM): 0.71
relative viability ([4]; first compound 0.03162 µM): 0.551
relative viability ([4]; first compound 0.1 µM): 0.578
relative viability ([4]; first compound 0.3162 µM): 0.589
relative viability ([4]; first compound 1 µM): 0.61

HCC-15
relative viability ([1]; first compound 0.01 µM): 0.908
relative viability ([1]; first compound 0.03162 µM): 0.823
relative viability ([1]; first compound 0.1 µM): 0.86
relative viability ([1]; first compound 0.3162 µM): 0.829
relative viability ([2]; first compound 0.01 µM): 1.1
relative viability ([2]; first compound 0.03162 µM): 0.905
relative viability ([2]; first compound 0.1 µM): 0.829
relative viability ([2]; first compound 0.3162 µM): 0.887
relative viability ([2]; first compound 1 µM): 0.973
relative viability ([3]; first compound 0.01 µM): 0.568
relative viability ([3]; first compound 0.03162 µM): 0.554
relative viability ([3]; first compound 0.1 µM): 0.523
relative viability ([3]; first compound 0.3162 µM): 0.639
relative viability ([3]; first compound 1 µM): 0.67
relative viability ([4]; first compound 0.01 µM): 0.739
relative viability ([4]; first compound 0.03162 µM): 0.58
relative viability ([4]; first compound 0.1 µM): 0.656
relative viability ([4]; first compound 0.3162 µM): 0.63
relative viability ([4]; first compound 1 µM): 0.731

HCC-78
relative viability ([1]; first compound 0.01 µM): 0.492
relative viability ([1]; first compound 0.03162 µM): 0.437
relative viability ([1]; first compound 0.1 µM): 0.473
relative viability ([1]; first compound 0.3162 µM): 0.42
relative viability ([2]; first compound 0.01 µM): 0.601
relative viability ([2]; first compound 0.03162 µM): 0.475
relative viability ([2]; first compound 0.3162 µM): 0.427
relative viability ([2]; first compound 1 µM): 0.556
relative viability ([3]; first compound 0.01 µM): 0.384
relative viability ([3]; first compound 0.03162 µM): 0.358
relative viability ([3]; first compound 0.3162 µM): 0.459
relative viability ([3]; first compound 1 µM): 0.37
relative viability ([4]; first compound 0.01 µM): 0.713
relative viability ([4]; first compound 0.03162 µM): 0.639
relative viability ([4]; first compound 0.3162 µM): 0.843
relative viability ([4]; first compound 1 µM): 0.737

NCI-H647
relative viability ([1]; first compound 0.01 µM): 0.632
relative viability ([1]; first compound 0.03162 µM): 0.538
relative viability ([1]; first compound 0.1 µM): 0.643
relative viability ([1]; first compound 0.3162 µM): 0.212
relative viability ([2]; first compound 0.01 µM): 0.764
relative viability ([2]; first compound 0.03162 µM): 0.798
relative viability ([2]; first compound 0.1 µM): 0.716
relative viability ([2]; first compound 0.3162 µM): 0.456
relative viability ([2]; first compound 1 µM): 0.583
relative viability ([3]; first compound 0.01 µM): 0.152
relative viability ([3]; first compound 0.03162 µM): 0.252
relative viability ([3]; first compound 0.1 µM): 0.136
relative viability ([3]; first compound 0.3162 µM): 0.183
relative viability ([3]; first compound 1 µM): 0.261
relative viability ([4]; first compound 0.01 µM): 0.483
relative viability ([4]; first compound 0.03162 µM): 0.385
relative viability ([4]; first compound 0.1 µM): 0.381
relative viability ([4]; first compound 0.3162 µM): 0.357
relative viability ([4]; first compound 1 µM): 0.38

NCI-H2009
relative viability ([1]; first compound 0.01 µM): 0.829
relative viability ([1]; first compound 0.03162 µM): 0.743
relative viability ([1]; first compound 0.1 µM): 0.9
relative viability ([1]; first compound 0.3162 µM): 0.676
relative viability ([2]; first compound 0.01 µM): 0.789
relative viability ([2]; first compound 0.03162 µM): 0.676
relative viability ([2]; first compound 0.1 µM): 0.663
relative viability ([2]; first compound 0.3162 µM): 0.8
relative viability ([2]; first compound 1 µM): 0.661
relative viability ([3]; first compound 0.01 µM): 0.348
relative viability ([3]; first compound 0.03162 µM): 0.288
relative viability ([3]; first compound 0.1 µM): 0.2
relative viability ([3]; first compound 0.3162 µM): 0.307
relative viability ([3]; first compound 1 µM): 0.315
relative viability ([4]; first compound 0.01 µM): 0.412
relative viability ([4]; first compound 0.03162 µM): 0.331
relative viability ([4]; first compound 0.1 µM): 0.398
relative viability ([4]; first compound 0.3162 µM): 0.447
relative viability ([4]; first compound 1 µM): 0.385

NCI-H520
relative viability ([1]; first compound 0.01 µM): 0.756
relative viability ([1]; first compound 0.03162 µM): 0.734
relative viability ([1]; first compound 0.1 µM): 0.681
relative viability ([1]; first compound 0.3162 µM): 0.59
relative viability ([2]; first compound 0.01 µM): 0.905
relative viability ([2]; first compound 0.03162 µM): 0.757
relative viability ([2]; first compound 0.1 µM): 0.676
relative viability ([2]; first compound 0.3162 µM): 0.746
relative viability ([2]; first compound 1 µM): 0.828
relative viability ([3]; first compound 0.01 µM): 0.245
relative viability ([3]; first compound 0.03162 µM): 0.22
relative viability ([3]; first compound 0.1 µM): 0.2
relative viability ([3]; first compound 0.3162 µM): 0.214
relative viability ([3]; first compound 1 µM): 0.207
relative viability ([4]; first compound 0.01 µM): 0.566
relative viability ([4]; first compound 0.03162 µM): 0.44
relative viability ([4]; first compound 0.1 µM): 0.512
relative viability ([4]; first compound 0.3162 µM): 0.617
relative viability ([4]; first compound 1 µM): 0.485
